Each structure is given as a SMILES string. Active and inactive are the calls of the source. The calls are words filed in the database; no cut-off is given here.

The nature of series [1]: Octanol-water partition coefficient, log K of the compound by reversed-phase HPLC. The series is classed as physicochemical. The following applies: read-out: log K.
A further series deals with Oryza sativa. The experiment in a line: Phytotoxicity in Oryza sativa (rice) seedlings assessed as assessed as inhibition of root growth at 100 ppm at 26 degC for 72 hr. In kind it is functional, organism-based.
A further series relates to Lolium multiflorum. The experiment in a line: Phytotoxicity against Lolium multiflorum (Italian ryegrass) seedlings assessed as inhibition of root growth at 100 ppm at 26 degC for 72 hr. In kind it is functional, organism-based.

`CC[C@H](C)[C@@H](O)[C@@H](C)C1=C(CC(C)=O)C(=O)C2=C(O[C@]3(C)CC[C@H]4O[C@@H](C(C)(C)O)CC[C@]4(C)[C@H]3[C@@H]2O)[C@]1(O)OC` [COCHLIOQUINOL III]: the logP in series [1] came to 0.31. The inhibition result with Oryza sativa and in the series on Lolium multiflorum was “Active” in each case.

As for `CC[C@H](C)[C@@H](O)[C@@H](C)C1=CC(=O)C2=C(O[C@]3(C)CC[C@H]4O[C@@H](C(C)(C)O)CC[C@]4(C)[C@H]3[C@@H]2O)[C@]1(O)CC(C)=O` [COCHLIOQUINOL II], the logP in series [1] is -0.05. Moreover, the inhibition entry with Oryza sativa and in the series with Lolium multiflorum was “Active” in each case.

Turning to `CC[C@H](C)C(=O)[C@@H](C)C1=CC(=O)C2=C(O[C@]3(C)CC[C@H]4O[C@@H](C(C)(C)O)CC[C@]4(C)[C@H]3[C@@H]2O)[C@]1(O)CC(C)=O` [COCHLIOQUINOL], in series [1], the logP is -0.238. Moreover, the inhibition result in the series with Oryza sativa and with Lolium multiflorum was “Active” throughout.

For the compound `CC[C@H](C)[C@@H](OC(C)=O)[C@@H](C)C1=CC(=O)C2=C(O[C@]3(C)CC[C@H]4O[C@@H](C(C)(C)O)CC[C@]4(C)[C@H]3[C@@H]2O)C1=O` [COCHLIOQUINONE A], the logP in series [1] came to 0.337. Besides, the inhibition result in the series on Oryza sativa and in the series on Lolium multiflorum was “Active” throughout.

On to `CC[C@H](C)C(=O)[C@@H](C)C1=CC(=O)C2=C(O[C@]3(C)CC[C@H]4O[C@@H](C(C)(C)O)CC[C@]4(C)[C@H]3C2)C1=O` [COCHLIOQUINONE B], for which the logP in series [1] is 0.437. Also, the inhibition entry in the series on Oryza sativa and in the series with Lolium multiflorum was “Active” each time.

Consider `CC[C@H](C)C(=O)[C@@H](C)C1=CC(=O)C2=C(O[C@]3(C)CC[C@H]4O[C@@H](C(C)(C)O)CC[C@]4(C)[C@H]3[C@@H]2O)C1=O` [COCHLIOQUINONE C], for which the logP in series [1] stood at 0.091. The inhibition result in the series on Oryza sativa and with Lolium multiflorum was “Active” in each case.

Take `C/C=C(\C)C(=O)[C@@H](C)C1=CC(=O)C2=C(O[C@]3(C)CC[C@H]4O[C@@H](C(C)(C)O)CC[C@]4(C)[C@H]3C2)C1=O` [COCHLIOQUINONE D]: the logP in series [1] came to 0.287. The inhibition result in the series with Oryza sativa and with Lolium multiflorum was “Active” each time.

With `CC[C@H](C)C(=O)[C@@H](C)C1=CC(=O)C2=C(O[C@]3(C)CC[C@H]4O[C@@H](C(C)(C)O)C[C@H](O)[C@]4(C)[C@H]3C2)C1=O` [COCHLIOQUINONE E], the logP in series [1] was determined as 0.013. Further, the inhibition result with Oryza sativa and in the series with Lolium multiflorum was “Active” in each case.

For `CC[C@H](C)[C@@H](OC(C)=O)[C@@H](C)c1cc(O)c2c(c1O)O[C@]1(C)CC[C@H]3O[C@@H](C(C)(C)O)CC[C@]3(C)[C@H]1C2=O` [ISOCOCHLIOQUINONE A], in series [1], the logP was found to be 0.699. In addition, the inhibition entry in the series with Oryza sativa and in the series with Lolium multiflorum was “Active” throughout.

With `CC[C@H](C)C(=O)[C@@H](C)c1cc(O)c2c(c1O)O[C@]1(C)CC[C@H]3O[C@@H](C(C)(C)O)CC[C@]3(C)[C@H]1C2=O` [ISOCOCHLIOQUINONE C], the logP in series [1] is 0.482. The inhibition result in the series on Oryza sativa and in the series with Lolium multiflorum was “Active” in each case.

As for `C/C=C(\C)[C@@H](OC(C)=O)[C@@H](C)C1=CC(=O)C2=C(O[C@]3(C)CC[C@H]4O[C@@H](C(C)(C)O)CC[C@]4(C)[C@H]3[C@@H]2O)C1=O` [STEMPHONE], the logP in series [1] is 0.224. The inhibition entry in the series with Oryza sativa and in the series with Lolium multiflorum was “Active” each time.

The values are drawn from ChEMBL document CHEMBL3045056, “Structures and Biological Activities of Phytotoxins Produced by the Plant Pathogenic Fungus Bipolaris cynodontis cynA” (J Pestic Sci, 1998).
